Ends that are not written are not given here.
What was measured:
[1] = Peptide titration with NaOH (pKa-like transitions, net charge assignment); assay type: physicochemical; conditions: stepwise NaOH addition to peptide solution in HPLC grade water; for first pKa-like transition (deprotonation of glutamic acid side groups), pH: start pH ∼3.2, transition observed up to this pH
Method: Peptide titration experiments were performed by adding 0.1 or 0.5 M NaOH solutions in 1–2 μL steps to a 1 mL HPLC-grade water peptide solution with a 2 mg mL^–1 starting concentration. After each NaOH addition, the samples were vigorously agitated using a vortex to ensure homogeneous mixing and the pH was measured using a Fisherbrand Hydrus 300 benchtop pH meter.
As stated in the introduction, these two peptides were designed to be “symmetrical” in relation to the position and distribution of their anionic (COOH/COO^–) and cationic (NH3^+/NH2) groups and to carry an overall theoretical net charge modulus of 1 at pH 7. As shown in our previous work, self-assembly can induce a shift in pKa of these ionic groups depending on the surrounding environment created.[26],[38] To investigate the effect of self-assembly on pKa of these groups, titration experiments were performed on each peptide at a […] concentration. The resulting curves are presented in Figure 2A, B. Both peptides were purchased as HCl salts; therefore, when dissolved in water low pH, ∼ 3.2, solutions were obtained. Upon addition of NaOH a first pKa-like transition was observed up to pH 5 for K(FEFK)2 and pH 4.5 for E(FKFE)2. This first transition is associated in both cases with deprotonation of the glutamic acid side groups.

[2] = Small-angle X-ray scattering of hydrogels; assay type: physicochemical; conditions: for fibers cross-section radius of gyration, Rσ: SAXS Guinier fit, hydrogels 6 mg mL^–1, pH 7; for estimated fiber diameter, df: from Rσ assuming cylindrical geometry
Method: SAXS experiments were performed on beamline I22 at the diamond light source (DLS) synchrotron (Didcot, UK).[31] The energy of the beam was 12.4 keV, corresponding to an X-ray wavelength of 0.1 nm. Quartz capillaries (1.5 mm outer diameter and 0.01 mm wall thickness) from Capillary Tube Supplies Ltd. (Bodmin, UK) were used as sample holders. The samples were prepared as described earlier and injected into the capillaries using a syringe. The sample-to-detector distance was fixed to 5.77 m, corresponding to an accessible momentum transfer vector range of 0.1 nm^–1 < q = (4π/λ) sin(θ/2) < 3.0 nm^–1, where θ is the scattering angle and λ is the wavelength of the incident photons. Calibration of the SAXS detector (Pilatus P3–2M, Dectris, Switzerland) was performed using silver behenate powder, and data were collected as 10 × 100 ms frames. Data were reduced using the Dawn software suite available from DLS.[32] The 2D isotropic scattering patterns were corrected for the detector response, dark current background, and sample transmission and then azimuthally integrated to generate 1D scattering patterns. Under these conditions, the sample coherent normalized scattering intensity IN(q) is [drawing 2] 1 where Ip(q) is the normalized intensity scattered by the sample, Is(q) is the normalized intensity scattered by the solvent in our case HPLC grade water, Cp is the peptide concentration in g cm^–3, and Ib is the background scattering originating mainly from the incoherent scattering of the peptides. Is(q) was obtained by measuring the scattering of the solvent, HPLC grade water, and Ib was estimated using the Porod law that gives the scattered intensity of a two-phase system at high q values: [drawing 3] 2 where Kp is the Porod constant. Ib was estimated by fitting the last 40 data points of the 1D scattering patter using a Porod plot [q^4I(q) vs q^4].[33]−[36]
The formation of fibers and fibrillar entangle networks was confirmed by SAXS and TEM. […] From a Guinier representation, ln qI(q) vs q^2, the fibers cross-section radius of gyration, Rσ, can be obtained. Indeed, it has been shown that for thin rod-like structures for qRσ < 1 the scattering intensity can be written as[34],[39] [drawing 4] 3
From the fitting of the linear region, Rσ values of 1.2 ± 0.2 nm for K(FEFK)2 and 1.4 ± 0.2 nm for E(FKFE)2 were obtained. Assuming a cylindrical geometry, Rσ can be related to the fiber diameter, df, through: [drawing 5] 4

TEM fiber width analysis = assay type: physicochemical; conditions: log-normal fit, 700 fibers, cut-off 20 nm, hydrogels 12 mg mL^–1 peptide (0.8 mg mL^–1 polymer where loaded), pH 7, diluted 20-fold
Method: Hydrogels were prepared as described earlier and diluted 20-fold using HPLC-grade water. The samples were vigorously mixed with a vortex to separate as much as possible the fibers. A carbon-coated copper grid (400 mesh grid Electron Microscopy Sciences, Hatfield, Pennsylvania, USA) was glow discharged and charged negatively. The carbon copper grid was then placed sequentially on a 10 μL sample droplet for 60 s, a 10 μL droplet of HPLC grade water for 10 s three times, a 10 μL droplet of 5% uranyl acetate solution for 30 s, and finally, on a 10 μL droplet of HPLC grade water for 10 s. After each step, excess liquid was drained off using lint-free tissue (90 mm Whatman 1). The grid was then left to air-dry for 2–5 min. TEM images were taken using an FEI Tecnai12 BioTwin transmission electron microscope running at 100 kV and equipped with a Gatan Orius SC1000A CCD camera. Fiber width analysis was performed by measuring randomly the widths of 700 fiber (cut-off size 20 nm) using ImageJ software across at least three TEM images for each sample.

[3] = Hydrogel behaviour in cell culture media without cells; assay type: physicochemical; conditions: after 14 days in cell culture media (DMEM, αMEM), no cells, 37 °C
Method: Rheological measurements were performed using a Discovery Hybrid 2 (DHR-2) rheometer from TA Instruments (New Castle, Delaware, USA) using a 20 mm parallel plate geometry and a 500 μm gap. Samples were prepared as described earlier. Hydrogels (200 μL) were pipetted onto the rheometer’s static bottom plate and the rheometer top plate lowered to the desired gap size. For hydrogel in cell culture inserts and conditioned with cell culture media (see below), the bottom membranes of the insets were removed, and the hydrogels deposited on the rheometer’s static bottom plate. Samples were covered with a solvent trap to avoid evaporation and left to equilibrate at 37 °C for 180 s before the experiments. Strain sweep experiments were performed at 1 Hz in the 0.01–100% strain range. The shear-thinning and recovery (i.e., injectability) experiments were performed by applying sequentially a low shear strain (0.2%) for 5 min followed by a high shear strain (1000%) for 1 min and again a low shear strain (0.2%) for 5 min.
Hydrogel samples were removed from the fridge (4 °C) and prewarmed to 37 °C. Cells were encapsulated into the hydrogel by gentle pipetting to ensure an evenly mixed sample, at a final density of 1 × 10^6 cells mL^–1. 100 μL of cell-laden hydrogel was then dispensed into ThinCert inserts (Greiner Bio-One) in 24-well plates and cell culture medium (1 mL) was added into each well/insert. […]

[4] = Swelling / stability of hydrogels in excess water; assay type: physicochemical; conditions: 12 mg mL^–1 peptide, 0.8 mg mL^–1 polymer where loaded, 1 mL gel + 3 mL HPLC grade water
Method: Hydrogels were prepared as described earlier at 12 mg mL^–1, and 1 mL was transferred into 5 mL cylindrical glass vials. Vials were gently tapped on the bench to eliminate any bubbles and obtained flat surfaces, and the height of the hydrogels was measured (day 0). Three milliliters of HPLC-grade water was then added on the top of the hydrogels. After being stored the samples for 10 days at 37 °C, the vials were inverted, and the height of the hydrogels was measured once again (day 10). The swelling ratio (Q) was defined as (H1 – H0)/H0, where H0 is the height of the hydrogel at day 0 and H1 is the height of the hydrogel at day 10.

[5] = system: immortalized human bone marrow-derived MSC line (Y201); experiment: 3D cell culture, PicoGreen assay; assay type: cell-based; conditions: MSCs, 3D culture, over 14 days
Method: (§1) 3T3 mouse fibroblast and an immortalized human bone marrow-derived MSC line (Y201)[37] were used to assess the cytocompatibility of the hydrogels. The 3T3 cells were cultured in Dulbecco’s Modified Eagle’s Medium (DMEM) (Gibco), 1% penicillin–streptomycin (Sigma–Aldrich, P0781), and 10% fetal bovine serum (Sigma–Aldrich, F9665), while the MSCs were cultured in Minimum Essential Medium Eagle (αMEM) (Sigma-Aldrich, M4526), 10% fetal bovine serum (Sigma–Aldrich, F7524), 1% antibiotic/antimycotic solution (Sigma–Aldrich, A5955), 1% GlutaMAX (Life Technologies, 35050038), and 0.01% L-ascorbic acid 2-phosphate (Sigma–Aldrich, A8960). Cells were harvested when reaching 70–80% confluency. For cell counting, the cell suspension was mixed (1:1 ratio) with a 0.4% trypan blue solution (Bio-Rad) and cell counted using an automated cell counter (Cellometer Auto 1000, Nexcelom).
(§2) Hydrogel samples were removed from the fridge (4 °C) and prewarmed to 37 °C. Cells were encapsulated into the hydrogel by gentle pipetting to ensure an evenly mixed sample, at a final density of 1 × 10^6 cells mL^–1. 100 μL of cell-laden hydrogel was then dispensed into ThinCert inserts (Greiner Bio-One) in 24-well plates and cell culture medium (1 mL) was added into each well/insert. 250 μL was added to the top of the hydrogel surface in the inset, and 750 μL was added to the well. Cell culture plates were then incubated at 37 °C with 5% of the CO2. The growth medium was changed every 20 min during the first hour of the experiment and subsequently every 2 days.
(§3) To quantify the number of cells present in the hydrogels, the amount of cells’ dsDNA was quantified via PicoGreen assay (Invitrogen, Thermo Fisher Scientific). […] When ready for analysis, the samples were removed from the −20 °C freezer, thawed at room temperature, and agitated until homogeneous. […] The assay plate was incubated at room temperature in the dark for 5 min then measured using a plate reader (CLARIOstar), using fluorescence detection with excitation at 480–512 nm and emission at 520 nm. […]

[6] = system: immortalized human bone marrow-derived MSC line (Y201); assay type: cell-based
Method: as §1, §2
To assess cell viability in the hydrogels, the live/dead assay (Thermo Fisher Scientific) was used. The cell culture medium was removed, and the samples were washed 3 times with DPBS. A working solution of staining reagent was prepared in DPBS (4 μM ethidium homodimer I and 2 μM calcein-AM) and 100 μL was added to the top of the hydrogel surfaces (in the insets) and a further 600 μL into the wells. […]

3T3 mouse fibroblast = experiment: 3D cell culture, PicoGreen assay; assay type: cell-based; conditions: 3T3 fibroblasts, 3D culture, 14 days; hydrogel prepared at 20 mg mL^–1
Method: as §1, §2, §3

With EFKFEFKFE [E(FKFE)2] the “pKa-like transition assigned to deprotonation of lysine side chain amino groups, pH from which upward” value [1] was at least 10.0 pH, the “first pKa-like transition (deprotonation of glutamic acid side groups), pH” value [1] was at most 4.5 pH and the “fibers cross-section radius of gyration, Rσ” value [2] was 1.4 ± 0.2 nm. The “estimated fiber diameter, df” value [2] was 4.0 ± 0.5 nm, the “fiber widths distribution maximum” value (TEM fiber width analysis) was 4.5 ± 0.9 nm and the “hydrogel integrity when extracted from cell culture inserts” value [3] was “some loss of integrity and loss of shape”. The “hydrogel stability in excess water” value ([4]; 10 days, 37 °C) was “unstable and after 10 days dissolved”, the “change in cell number (PicoGreen)” value [5] was “decrease in cell number” and the “cell viability (live/dead)” value [6] was “higher”. For the same sequence, the “hydrogel stability in MSC culture” value ([6]; after 14 days of 3D culture with MSCs) was “dissolve” and the shift of terminal NH3+ apparent pKa vs theoretical was 1 unit.
In the case of KFEFKFEFK [K(FEFK)2], the “pKa-like transition assigned to deprotonation of lysine side chain amino groups, pH from which upward” value [1] is reported as at least 9.5 pH, the “first pKa-like transition (deprotonation of glutamic acid side groups), pH” value [1] is reported as at most 5 pH and the “fibers cross-section radius of gyration, Rσ” value [2] is reported as 1.2 ± 0.2 nm. The “estimated fiber diameter, df” value [2] was 3.3 ± 0.5 nm, the “fiber widths distribution maximum” value (TEM fiber width analysis) was 4.9 ± 1.0 nm and the “hydrogel integrity when extracted from cell culture inserts” value [3] was “keep their integrity and shape”. The swelling ([4]; day 10, 37 °C) was ~30 % (v/v), the “cell proliferation (cell number, PicoGreen)” value (3T3 mouse fibroblast) was “Significant proliferation” and the “change in cell number (PicoGreen)” value [5] was “no significant change in cell number”. The “cell viability (live/dead)” value [6] was “good”.

From publication PMC11170954, “Effect of Peptide–Polymer Host–Guest Electrostatic Interactions on Self-Assembling Peptide Hydrogels Structural and Mechanical Properties and Polymer Diffusivity” (Biomacromolecules, 2024)
